According to US10300052B2, “Methods for increasing CFTR activity” (THE UAB RESEARCH FOUNDATION, priority 2012, dated 2019):

What was measured:
[1] = system: CFBE41o-cells without WT CFTR complementation (parental cells); assay: Short-circuit current (Isc) in Ussing chambers, parental CFBE41o- cells without detectable CFTR expression; type: cell-based, human; conditions: ivacaftor 10 μM after amiloride 100 μM and forskolin 100 nM; parental cells without detectable CFTR expression (FIG. 1A)
Description: CFBE41o-cells complemented by stable expression of WT-CFTR (by a lentivirus promoter) are shown in comparison to CFBE41o-cells without WT CFTR complementation (parental cells). *P<0.05, **P<0.005, n=5/condition.
The CFTR potentiator ivacaftor was chosen as an exemplary CFTR activator. The activity of ivacaftor was examined in WT-CFTR expressing cells.
Short-circuit current (Isc) was measured under voltage clamp conditions using MC8 voltage clamps and P2300 Ussing chambers (Physiologic Instruments, San Diego, Calif.) as previously described (2). Monolayers were initially bathed on both sides with identical Ringer's solutions containing (in mM) 115 NaCl, 25 NaHCO3, 2.4 KH2PO4, 1.24 K2HPO4, 1.2 CaCl2, 1.2 MgC2, 10 D-glucose (pH 7.4). Bath solutions were vigorously stirred and gassed with 95%02:5% CO2. Short-circuit current measurements were obtained using an epithelial voltage clamp (Physiologic Instruments). A one-second three-mV pulse was imposed every 10 seconds to monitor resistance calculated using Ohm's law. Where indicated, the mucosal bathing solution was changed to a low Cl-solution containing 1.2 NaCl and 115 Na+ gluconate, and all other components as above. Amiloride (100 μM) was added to block residual Na+ current, followed by the agonists forskolin, ivacaftor, and ATP as indicated (minimum five-min observation at each concentration). […]

CFTR = target: T1, CFTR (Homo sapiens, UniProt P13569); assay: Short-circuit current (Isc) in primary non-CF human bronchial epithelial (HBE) cells; type: cell-based; conditions: ivacaftor 10 μM after pre-stimulation with 100 nM forskolin, compared to forskolin alone (FIG. 1B)
T1 construct: from tissue; host or cells: normal human trachea/bronchus from donor explant organs
T1 sequence (P13569 whole entry): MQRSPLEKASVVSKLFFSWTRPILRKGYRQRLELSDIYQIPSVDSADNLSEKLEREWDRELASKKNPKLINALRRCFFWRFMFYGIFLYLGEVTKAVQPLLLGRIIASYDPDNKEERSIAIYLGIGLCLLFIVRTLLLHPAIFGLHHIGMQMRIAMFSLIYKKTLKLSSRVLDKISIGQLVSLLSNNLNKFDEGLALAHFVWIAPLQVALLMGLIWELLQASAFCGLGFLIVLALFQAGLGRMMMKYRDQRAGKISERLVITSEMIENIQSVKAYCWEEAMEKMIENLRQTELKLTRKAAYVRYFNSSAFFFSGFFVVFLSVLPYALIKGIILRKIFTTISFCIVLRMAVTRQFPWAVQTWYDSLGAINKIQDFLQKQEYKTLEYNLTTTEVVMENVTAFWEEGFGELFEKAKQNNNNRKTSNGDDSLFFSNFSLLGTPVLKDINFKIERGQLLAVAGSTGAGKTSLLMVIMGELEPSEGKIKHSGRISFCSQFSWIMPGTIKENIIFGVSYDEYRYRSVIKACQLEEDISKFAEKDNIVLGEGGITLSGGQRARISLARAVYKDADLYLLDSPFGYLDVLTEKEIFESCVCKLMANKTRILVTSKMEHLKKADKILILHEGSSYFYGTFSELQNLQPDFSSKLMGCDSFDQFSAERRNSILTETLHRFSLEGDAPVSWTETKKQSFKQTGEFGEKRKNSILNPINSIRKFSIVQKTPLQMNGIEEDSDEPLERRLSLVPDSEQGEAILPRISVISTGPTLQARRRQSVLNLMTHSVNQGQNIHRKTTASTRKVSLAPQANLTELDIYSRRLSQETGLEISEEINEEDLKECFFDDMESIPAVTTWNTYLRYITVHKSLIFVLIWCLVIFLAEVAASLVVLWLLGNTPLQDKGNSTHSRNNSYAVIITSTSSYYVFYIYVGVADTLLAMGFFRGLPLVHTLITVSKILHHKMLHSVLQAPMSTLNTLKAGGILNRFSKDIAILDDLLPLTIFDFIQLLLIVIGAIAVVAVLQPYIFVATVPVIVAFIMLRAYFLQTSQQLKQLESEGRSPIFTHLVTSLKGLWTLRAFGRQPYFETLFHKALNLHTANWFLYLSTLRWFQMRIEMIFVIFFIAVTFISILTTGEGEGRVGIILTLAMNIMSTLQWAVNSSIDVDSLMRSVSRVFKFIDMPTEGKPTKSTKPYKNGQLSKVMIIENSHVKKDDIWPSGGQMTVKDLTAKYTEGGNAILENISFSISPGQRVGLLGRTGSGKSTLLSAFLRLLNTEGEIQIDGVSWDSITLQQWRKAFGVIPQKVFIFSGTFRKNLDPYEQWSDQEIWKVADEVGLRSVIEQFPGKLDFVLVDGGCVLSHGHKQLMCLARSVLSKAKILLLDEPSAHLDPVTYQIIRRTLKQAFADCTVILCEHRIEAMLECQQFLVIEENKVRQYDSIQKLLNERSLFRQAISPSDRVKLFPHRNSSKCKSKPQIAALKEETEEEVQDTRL
Description: In primary non-CF human bronchial epithelial (HBE) cells, ivacaftor also augmented CFTR-dependent anion transport activity following pre-stimulation with 100 nM forskolin, a dose chosen to induce cAMP levels matching CSE-exposed cells, increasing CFTR-dependent short-circuit current (Isc) compared to that stimulated by forskolin alone (FIG. 1B).
Primary human bronchial epithelial (HBE) cells were derived from lung explants after written informed consent was obtained from CF and non-CF subjects with confirmed CFTR genetics by methods described previously. Briefly, tissues were debrided immediately after surgical resection, washed twice in Minimum Essential Media (MEM) with 0.5 mg/ml DTT (Sigma-Aldrich, St. Louis, Mo.) and 25 U/ml DNAse I (Roche, Basel, Switzerland), and then placed in dissociation media containing MEM, 2.5 U/ml DNAse I, 100 μg/ml ceftazidime, 80 μg/ml tobramycin, 1.25 μg/ml amphotericin B, and 4.4 U/ml pronase (Sigma-Aldrich) for 24-36 h at 4° C. […]
Short-circuit current (Isc) was measured under voltage clamp conditions using MC8 voltage clamps and P2300 Ussing chambers (Physiologic Instruments, San Diego, Calif.) as previously described (2). […] A one-second three-mV pulse was imposed every 10 seconds to monitor resistance calculated using Ohm's law. […]

## CC(C)(C)c1cc(C(C)(C)C)c(NC(=O)c2c[nH]c3ccccc3c2=O)cc1O [ivacaftor]
[1]
  anion transport (Isc): no activity
CFTR
  CFTR-dependent anion transport activity (short-circuit current, Isc): augmented
